Measured values taken from PubChem BioAssay AID248 (DTP/NCI, 2004).
Where “and” joins values, the source holds several entries; their conditions need not be identical. Equal values may be shown once. Inconclusive results and toxic doses are left out.

Test system: L1210 leukemia ip in BDF1 mice, survival T/C
Experiment: NCI In Vivo Anticancer Drug Screen. Data for tumor model L1210 Leukemia (intraperitoneal) in B6D2F1 (BDF1) mice
Settings: endpoint: mean survival time, higher = longer survival
How it was run: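 Antitumor effect is assessed in tumor-bearing animals. Survival in the compound arm is compared with a vehicle-dosed control arm and expressed as their quotient.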

[1] = dose: 100.0 mg/kg/injection, schedule: Q01DX009 (ip), vehicle: saline
[2] = dose: 100.0 mg/kg/injection, schedule: Q04DX003 (ip), vehicle: saline
[3] = dose: 200.0 mg/kg/injection, schedule: Q01DX009 (ip), vehicle: saline
[4] = dose: 200.0 mg/kg/injection, schedule: Q04DX003 (ip), vehicle: saline
[5] = dose: 400.0 mg/kg/injection, schedule: Q01DX009 (ip), vehicle: saline
[6] = dose: 400.0 mg/kg/injection, schedule: Q04DX003 (ip), vehicle: saline
[7] = dose: 75.0 mg/kg/injection, schedule: Q01DX001 (ip), vehicle: saline
[8] = dose: 100.0 mg/kg/injection, schedule: Q01DX001 (ip), vehicle: saline
[9] = dose: 200.0 mg/kg/injection, schedule: Q01DX001 (ip), vehicle: saline
[10] = dose: 400.0 mg/kg/injection, schedule: Q01DX001 (ip), vehicle: saline
[11] = dose: 100.0 mg/kg/injection, schedule: Q01DX009 (ip), vehicle: Klucel (hydroxypropylcellulose) (HPC)
[12] = dose: 200.0 mg/kg/injection, schedule: Q01DX009 (ip), vehicle: Klucel (hydroxypropylcellulose) (HPC)
[13] = dose: 200.0 mg/kg/injection, schedule: Q04DX002 (ip), vehicle: Klucel (hydroxypropylcellulose) (HPC)
[14] = dose: 100.0 mg/kg/injection, schedule: Q04DX003 (ip), vehicle: Klucel (hydroxypropylcellulose) (HPC)
[15] = dose: 200.0 mg/kg/injection, schedule: Q04DX003 (ip), vehicle: Klucel (hydroxypropylcellulose) (HPC)
[16] = dose: 400.0 mg/kg/injection, schedule: Q04DX003 (ip), vehicle: Klucel (hydroxypropylcellulose) (HPC)
[17] = dose: 100.0 mg/kg/injection, schedule: Q01DX009 (ip), vehicle: saline with Tween-80
[18] = dose: 50.0 mg/kg/injection, schedule: Q01DX001 (ip), vehicle: carboxymethylcellulose (CMC)
[19] = dose: 100.0 mg/kg/injection, schedule: Q01DX001 (ip), vehicle: carboxymethylcellulose (CMC)
[20] = dose: 200.0 mg/kg/injection, schedule: Q01DX001 (ip), vehicle: carboxymethylcellulose (CMC)
[21] = dose: 400.0 mg/kg/injection, schedule: Q01DX001 (ip), vehicle: carboxymethylcellulose (CMC)

Compound: O=C(Nc1ccc(C(=O)Nc2ccc(C3=NCCN3)cc2)cc1)Nc1ccc(C2=NCCN2)cc1
- T/C (dose: 1.88 mg/kg/injection, schedule: Q01DX Z (ip), vehicle: saline): 117 % of control
- T/C (dose: 3.75 mg/kg/injection, schedule: Q01DX Z (ip), vehicle: saline): 117 % of control
- T/C (dose: 7.5 mg/kg/injection, schedule: Q01DX Z (ip), vehicle: saline): 123 % of control
- T/C (dose: 30.0 mg/kg/injection, schedule: Q01DX Z (ip), vehicle: carboxymethylcellulose (CMC)): 166 % of control
- T/C (dose: 30.0 mg/kg/injection, schedule: Q01DX Z (sc), vehicle: saline): 97 % of control
- T/C (dose: 44.0 mg/kg/injection, schedule: Q01DX007 (oral), vehicle: carboxymethylcellulose (CMC)): 103 % of control
- T/C (dose: 60.0 mg/kg/injection, schedule: Q01DX Z (ip), vehicle: carboxymethylcellulose (CMC)): 218 % of control
- T/C (dose: 60.0 mg/kg/injection, schedule: Q01DX Z (sc), vehicle: saline): 109 % of control
- T/C (dose: 62.5 mg/kg/injection, schedule: Q01DX010 (oral), vehicle: saline): 109 % of control
- T/C (dose: 88.0 mg/kg/injection, schedule: Q01DX007 (oral), vehicle: carboxymethylcellulose (CMC)): 101 % of control
- T/C (dose: 120.0 mg/kg/injection, schedule: Q01DX Z (ip), vehicle: carboxymethylcellulose (CMC)): 192 % of control
- T/C (dose: 120.0 mg/kg/injection, schedule: Q01DX Z (sc), vehicle: saline): 120 % of control
- T/C (dose: 125.0 mg/kg/injection, schedule: Q01DX010 (oral), vehicle: saline): 108 % of control
- T/C (dose: 175.0 mg/kg/injection, schedule: Q01DX007 (oral), vehicle: carboxymethylcellulose (CMC)): 101 % of control
- T/C (dose: 240.0 mg/kg/injection, schedule: Q01DX Z (sc), vehicle: saline): 154 % of control
- T/C (dose: 250.0 mg/kg/injection, schedule: Q01DX010 (oral), vehicle: saline): 106 % of control
- T/C (dose: 350.0 mg/kg/injection, schedule: Q01DX007 (oral), vehicle: carboxymethylcellulose (CMC)): 100 % of control
- T/C (dose: 500.0 mg/kg/injection, schedule: Q01DX010 (oral), vehicle: saline): 106 % of control
- T/C (dose: 700.0 mg/kg/injection, schedule: Q01DX007 (oral), vehicle: carboxymethylcellulose (CMC)): 100 % of control

Compound: CNCCO
- T/C [1]: 97 % of control
- T/C [2]: 96 % of control
- T/C [3]: 92 % of control
- T/C [4]: 98 % of control
- T/C [5]: 97 % of control
- T/C [6]: 102 % of control

Compound: CCCCCCCCCCCCCNCCCCCCCCCCCCC
- T/C [2]: 96 % of control
- T/C [4]: 92 % of control
- T/C [6]: 96 % of control

Compound: Cc1cc([N+](=O)[O-])c(P(=O)(O)O)cc1Cl
- T/C [7]: 93 % of control
- T/C (dose: 150.0 mg/kg/injection, schedule: Q01DX001 (ip), vehicle: saline): 91 % of control
- T/C (dose: 300.0 mg/kg/injection, schedule: Q01DX001 (ip), vehicle: saline): 96 % of control

Compound: Cc1cccc(C[As](=O)(O)O)c1
- T/C (dose: 12.5 mg/kg/injection, schedule: Q04DX003 (ip), vehicle: Klucel (hydroxypropylcellulose) (HPC)): 97 % of control
- T/C (dose: 25.0 mg/kg/injection, schedule: Q04DX003 (ip), vehicle: Klucel (hydroxypropylcellulose) (HPC)): 111 % of control

Compound: COc1ccc(C(O)CN)cc1 (stereo not drawn)
- T/C (dose: 50.0 mg/kg/injection, schedule: Q01DX009 (ip), vehicle: saline): 93 % of control
- T/C [1]: 102 % of control
- T/C [2]: 105 % of control
- T/C [3]: 95 % of control and 102 % of control
- T/C [4]: 103 % of control

Compound: O=C(Nc1ccc(S(=O)(=O)F)cc1)c1cccc([N+](=O)[O-])c1
- T/C [8]: 101 % of control
- T/C [9]: 100 % of control
- T/C [10]: 97 % of control

Compound: O=C(NNC(=S)Nc1ccc(S(=O)(=O)N2CCCCC2)cc1)c1ccncc1
- T/C [11]: 92 % of control
- T/C [12]: 92 % of control
- T/C (dose: 400.0 mg/kg/injection, schedule: Q01DX009 (ip), vehicle: Klucel (hydroxypropylcellulose) (HPC)): 91 % of control

Compound: CCCCCCCNC(=S)OCC
- T/C (dose: 100.0 mg/kg/injection, schedule: Q04DX002 (ip), vehicle: saline with Tween-80): 100 % of control
- T/C (dose: 200.0 mg/kg/injection, schedule: Q04DX002 (ip), vehicle: saline with Tween-80): 107 % of control
- T/C (dose: 400.0 mg/kg/injection, schedule: Q04DX002 (ip), vehicle: saline with Tween-80): 107 % of control

Compound: CC(=O)CCCCC(=O)O
- T/C [1]: 111 % of control
- T/C [2]: 96 % of control
- T/C [3]: 89 % of control
- T/C [4]: 93 % of control
- T/C [5]: 94 % of control
- T/C [6]: 100 % of control

Compound: ClC1c2ccccc2-c2nsnc2C1Cl (stereo not drawn)
- T/C (dose: 50.0 mg/kg/injection, schedule: Q01DX009 (ip), vehicle: Klucel (hydroxypropylcellulose) (HPC)): 94 % of control
- T/C [11]: 87 % of control
- T/C [12]: 91 % of control
- T/C [13]: 92 % of control

Compound: Cc1cc2ncn(CC(=O)O)c2cc1C
- T/C [2]: 101 % of control
- T/C [4]: 95 % of control
- T/C [6]: 97 % of control

Compound: O=C(O)c1cc(Br)cc(Cl)c1Cl
- T/C (dose: 100.0 mg/kg/injection, schedule: Q04DX002 (ip), vehicle: Klucel (hydroxypropylcellulose) (HPC)): 100 % of control
- T/C [13]: 103 % of control

Compound: O=C(O)CCC(=O)c1cc2ccccc2s1
- T/C [14]: 92 % of control
- T/C [15]: 99 % of control
- T/C [16]: 99 % of control

Compound: CCCCCC1OC1C/C=C\CCCCCCCC(=O)OCC(O)COC(=O)CCCCCCC/C=C\CC1OC1CCCCC (stereo not drawn)
- T/C [8]: 97 % of control
- T/C [9]: 97 % of control
- T/C [10]: 95 % of control

Compound: CCOC(=O)/C=C(/C)Nc1ccc(SC)cc1
- T/C [17]: 100 % of control
- T/C (dose: 200.0 mg/kg/injection, schedule: Q01DX009 (ip), vehicle: saline with Tween-80): 96 % of control
- T/C (dose: 400.0 mg/kg/injection, schedule: Q01DX009 (ip), vehicle: saline with Tween-80): 100 % of control

Compound: CN=C(Nc1ccc(N(C)C)cc1)SC
- T/C (dose: 75.0 mg/kg/injection, schedule: Q01DX001 (ip), vehicle: other): 105 % of control
- T/C (dose: 150.0 mg/kg/injection, schedule: Q01DX001 (ip), vehicle: other): 103 % of control

Compound: CCCCCCC(CC)NCCO (stereo not drawn)
- T/C [7]: 96 % of control

Compound: c1ccc2c(c1)C(=C1c3ccccc3-c3ccccc31)c1ccccc1-2
- T/C (dose: 100.0 mg/kg/injection, schedule: Q01DX001 (ip), vehicle: Klucel (hydroxypropylcellulose) (HPC)): 104 % of control
- T/C (dose: 200.0 mg/kg/injection, schedule: Q01DX001 (ip), vehicle: Klucel (hydroxypropylcellulose) (HPC)): 96 % of control

Compound: c1ccc2c(c1)-c1ccccc1-2
- T/C [18]: 97 % of control
- T/C [19]: 97 % of control
- T/C [20]: 97 % of control
- T/C [21]: 103 % of control

Compound: Cc1[nH]ncc1Br
- T/C (dose: 100.0 mg/kg/injection, schedule: Q04DX003 (ip), vehicle: saline with Tween-80): 98 % of control
- T/C (dose: 200.0 mg/kg/injection, schedule: Q04DX003 (ip), vehicle: saline with Tween-80): 92 % of control
- T/C (dose: 400.0 mg/kg/injection, schedule: Q04DX003 (ip), vehicle: saline with Tween-80): 103 % of control

Compound: N#Cc1ccc(CCCCCCc2ccc(C#N)cc2)cc1
- T/C (dose: 25.0 mg/kg/injection, schedule: Q01DX009 (ip), vehicle: saline with Tween-80): 95 % of control
- T/C [18]: 101 % of control
- T/C (dose: 50.0 mg/kg/injection, schedule: Q01DX009 (ip), vehicle: saline with Tween-80): 95 % of control
- T/C [19]: 106 % of control
- T/C [17]: 94 % of control
- T/C [20]: 110 % of control
- T/C [21]: 120 % of control

Compound: O=S(=O)(Nc1ccccc1)c1ccccc1
- T/C [14]: 98 % of control
- T/C [15]: 107 % of control
- T/C [16]: 98 % of control
